ChEMBL document CHEMBL1142635, “Lupene-type triterpenes from Periploca aphylla” (J Nat Prod, 2000)
The source made the active and inactive calls. No cut-off for these calls is given here.

Key:
Bacillus cereus = test: Antibacterial activity against Bacillus cereus at 100 ug after 24 hrs by agar well diffusion method; type: functional, organism-based
Staphylococcus aureus = test: Antibacterial activity against […] at 100 ug after 24 hrs by agar well diffusion method; type: functional, organism-based
Salmonella typhi = test: Antibacterial activity against Salmonella typhi at 100 ug after 24 hrs by agar well diffusion method; type: functional, organism-based; details: Salmonella enterica subsp. enterica serovar Typhi
Streptococcus pyogenes = test: Antibacterial activity against Streptococcus pyogenes at 100 ug after 24 hrs by agar well diffusion method; type: functional, organism-based
Proteus mirabilis = test: Antibacterial activity against Proteus mirabilis at 100 ug after 24 hrs by agar well diffusion method; type: functional, organism-based
Escherichia coli = test: Antibacterial activity against Escherichia coli at 100 ug after 24 hrs by agar well diffusion method; type: functional, organism-based
[1] = Inhibition of alpha-glucosidase 4

C=C(C)[C@@H]1CC[C@]2(C)CC[C@]3(C)[C@H](CC[C@@H]4[C@@]5(C)CC[C@H](OC(=O)CCCCCCCCCCCCCCCCC)C(C)(C)[C@@H]5[C@@H](O)C[C@]43C)[C@@H]12
Activity (Bacillus cereus): inactive
Activity (Staphylococcus aureus): inactive
Activity (Salmonella typhi): inactive
Activity (Streptococcus pyogenes): inactive
Activity (Proteus mirabilis): inactive
Activity (Escherichia coli): inactive

C=C(C)[C@@H]1CC[C@]2(C)CC[C@]3(C)[C@H](CC[C@@H]4[C@@]5(C)CC[C@H](O)C(C)(C)[C@@H]5[C@@H](O)C[C@]43C)[C@@H]12
IC50 [1]: 42.5 µM
